Molecules are shown by their SMILES. “Also recorded” adds a separate entry of the source. Like-named read-outs stand apart in the source and are kept apart here.

Data set [1] can be described thus: Rat IV plasma:brain level cassette. In kind it is in vivo. The following applies: male, 0.25 mg/kg; for concentration at 15 min: Sprague Dawley; for Kp uu at 0.25 h / Kp at 0.25 h: Sprague-Dawley, brain and plasma, 15 min; for Kp at 0.25 h: brain:plasma. As to the method: PAMs 11 and 12 were next evaluated in our rat IV plasma: brain level cassette paradigm (0.25 mg/kg compound, 1 mg/kg total dose, 10.1% EtOH:40.4% PEG400:49.5% DMSO) sampled at a set 15 min time point to assess CNS penetration. […] As mice are the most sensitive species to cholinergic mechanisms,[11],[13],[23],[24] we placed a high-throughput phenotypic seizure liability assay into the work-flow in which potent ago-PAMs, such as 2–5,[8]−[15] display robust Racine scale 4/5 behavioral convulsions that develop within minutes of dosing and last for the 3 h duration of the study. […] In parallel, we performed electrophysiology studies in mouse native tissue layer V medial prefrontal cortex (mPFC). […] Thus, both compounds cleared the major hurdles of CNS penetration and the liability of M1 overstimulation. […]
LC/MS/MS Bioanalysis of Samples from Plasma Protein Binding and Intrinsic Clearance […]
Samples were analyzed on a Thermo Electron TSQ Quantum Ultra triple quad mass spectrometer (San Jose, CA) via electrospray ionization (ESI) with two Themo Electron Accella pumps (San Jose, CA), and a Leap Technologies CTC PAL autosampler (Carrboro, NC). Analytes were separated by gradient elution on a dual column system with two Thermo Hypersil Gold (2.1 x 30 mm, 1.9 µm) columns (San Jose, CA) thermostated at 40 °C. HPLC mobile phase A was 0.1% formic acid in water and mobile phase B was 0.1% formic acid in acetonitrile. The gradient started […]
for 0.2 min; returned to 10% B in 0.1 min. The total run time was 1.3 min and the HPLC flow rate was 0.8 mL/min. While pump 1 ran the gradient method, pump 2 equilibrated the alternate column isocratically at 10% B. Compound optimization, data collection, and processing was performed using Thermo Electron's QuickQuan software (v2.3) and Xcalibur (v2.0.7 SP1).
In vivo DMPK experimental:
Determination of brain to plasma ratio:
All animal study procedures were approved by the Institutional Animal Care and Use Committee and were conducted in accordance with the National Institutes of Health regulations of animal care covered in Principles of Laboratory Animal Care (National Institutes of Health). All rats were fasted overnight prior to testing.
For determination of the brain over plasma ratio (Kp), compounds were formulated in 8% ethanol, 32% PEG400 and 60% DMSO (v/v/v) and administered as a single 0.2 mg/kg IV dose (1 mL/kg) to male, Sprague Dawley rats (n = 1) via injection into a surgically-implanted jugular vein catheter. At 15 min post dosing, blood sample was collected into chilled, K2EDTA anticoagulant-fortified tube and immediately placed on wet ice. The blood sample was then centrifuged (1700 rcf, 5 minutes, 4 °C) to obtain plasma sample. At the same post-administration time point, whole brain sample was obtained by rapid dissection, rinsed with PBS, and immediately frozen in individual tissue collection box (dry ice). All brain and plasma samples were stored at -80 °C until […]
Sample Analysis: Concentrations in plasma and brain homogenates were quantified by liquid chromatography tandem mass spectrometry (LC-MS/MS). Whole brains were homogenized in 3 mL of 70:30 IPA:water in a mini bead beater for 3 min, and centrifuged at 3,500 g for 5 min. 5 uL of the supernatant was diluted in 15 uL of blank plasma for quantification of the analytes. Plasma samples were centrifuged at 3,500 g for 5 min. A standard curve was generated by diluting the analytes DMSO stocks with blank plasma to obtain a final concentration of 10,000 ng/ml followed by a serial dilution down to 0.5 ng/ml. Quality controls were generated by a serial dilution of the 5,000 ng/ml standard curve solution in blank plasma to obtain 3 concentrations of 500, 50, and 5 ng/ml. 20 uL of brain diluted in plasma, plasma, blank plasma, standard curve and QC samples were loaded in a V-bottom 96-well plate. 120 uL of acetonitrile containing 0.05 uM carbamazepine (internal standard) was added to each well and the plate was centrifuged at 3,500 g for 5 min. 60 […]

The nature of data set [2]: In vivo rat MET ID (plasma). As to the method:
The team was still puzzled by the severe cholinergic adverse events observed in rats at the 100 and 300 mg/kg arms of the dose escalation study, as this was not consistent with the past 20 years of M1 PAM research. Could the N-demethylated metabolite A (24) be responsible? Due to the disconnect between liver S9 and hepatocytes, we felt it was prudent to examine in vivo rat MET ID at doses of 100 and 300 mg/kg to ensure 24 is produced upon in vivo oral dosing after 5–30 min and 160–240 min, and to determine if any other putative metabolites are generated at detectable levels (Figure 10). Across both doses and time points, 73–81% of the parent 11 remained. Metabolite 24 was produced in vivo at 2.2 to 5.6% relative abundance and lower than from in vitro incubations, along with two oxidative metabolites, a dioxygenated species M461 (26) and a mono-oxygenated species M445 (27) on the tetrahydropyranyl moiety. […] A species such as 27 would resemble the hydroxy pyranyl congeners known to be potent ago-PAMs and prone to severe cholinergic side effects, and the potential for 24 to elicit similar cholinergic toxicity was unknown.

The test system of another data set is 4-strain Ames. As to the kind of experiment: 4-strain Ames assay. The following applies: with and without S9.
Data set [3] is described as follows: GSH trapping study in human liver microsomes. In kind it is in vitro ADME.
The test system of a further data set is mice. The experiment in a line: Mouse phenotypic seizure liability assay (modified Racine score). In kind it is in vivo. To be noted: 100 mg/kg i.p.; for seizure liability / behavioral convulsions (modified Racine score): male C57Bl/6 mice, 3 h. As to the method:
Brain plasma concentration ratio (Kp) was calculated by dividing brain concentration by plasma concentration for each animal. Unbound brain to unbound plasma concentration ratio (Kp,uu) is calculated using the following formula: Kp,uu = (Brain ng/g x brain fu)/(plasma ng/ml x plasma fu). […]
Behavioral Manifestations of Seizure Activity
To evaluate induction of behavioral manifestation of seizure activity, C57Bl/6 mice received administration of vehicle or 100 mg/kg M1 PAM. Compounds were formulated in 30% Captisol (11) or 10% Tween 80 (2-4 and 12) (pH 7.0) at a concentration of 10 mg/mL and injected i.p. (n = 3). Animals were monitored continuously and scored for behavioral manifestations of seizure activity at 5, 10, 15, and 30 min, and 1 and 3 h. Behavioral manifestations of seizures were scored using a modified Racine scoring system.2 Briefly, a score of 0 represents no behavior alterations; score 1, immobility, mouth and facial movements, or facial clonus; score 2, head nodding, tail extension; score 3, forelimb clonus, repetitive movements; score 4, rearing and tonic clonic seizure; and score 5, continuous rearing and falling, severe generalized tonic clonic seizure.

Data set [4] in a line: IV/PO pharmacokinetics, NHP. The format is in vivo. To be noted: NHP (cyno); for clearance / Vd / half-life: cynomolgus monkey, plasma, 1 mg/kg; for clearance: read-out: CLp; for Vd: read-out: Vss; for half-life: read-out: elimination t1/2 (converted). The source says: We next conducted multispecies IV/PO PK in parallel as a potential discerning data set.
[5] abbreviates: brain, read-out: brain concentration.
[6] abbreviates: plasma, read-out: plasma concentration.

Turning to `Cn1ccc(-c2ccc(Cc3cc(C(=O)NC4CCOCC4)nc4ccn(C)c34)cc2)n1` [compound 11], the concentration at 15 min in data set [1] (setting [5]) was 39 ng/g. Moreover, the concentration at 15 min in data set [1] (setting [6]) is 92.2 ng/mL. Besides, in data set [1], the Kp uu at 0.25 h amounted to 0.36 and the Kp at 0.25 h is 0.42. In data set [2] (11 dosed 100mg, 5-30 min), the “Relative Abundance (%)” value is 81.0%. The “Relative Abundance (%)” value in data set [2] (11 dosed 100mg, 60-240 min) came to 74.0%. Also, the “Relative Abundance (%)” value in data set [2] (11 dosed 300mg, 5-30 min) was determined as 79.4%. Further, the “Relative Abundance (%)” value in data set [2] (11 dosed 300mg, 160-240 min) is 73.1%. Moreover, the Ames result in the data set on 4-strain Ames was “negative”. Besides, the “GSH trapping, reactive intermediates” value in data set [3] was “negative”. Besides, in the data set with mice, the “seizure liability / behavioral convulsions (modified Racine score)” value is recorded as “did not induce seizure liability; also recorded: did not cause any observed adverse effects”. This compound registered a total brain exposure in the data set on mice (mouse) of 1.04 µM. For the same compound, in data set [4] (dose iv/po 1/5 mg/kg), the “F (%) po” value is on record as 59%, the clearance stood at 5.9 mL/min/kg, the Vd was 0.39 L/kg and the half-life is 1 h.
On to `Cn1ccc(-c2ccc(Cc3cc(C(=O)NC4CCOCC4)nc4ccsc34)cc2)n1` [compound 12], for which, in data set [1] (setting [5]), the concentration at 15 min stood at 120 ng/g. For the same compound, the concentration at 15 min in data set [1] (setting [6]) stood at 105 ng/mL. In addition, in data set [1], the Kp uu at 0.25 h turned out to be 0.7 and the concentration ratio (Kp) at 0.25 h was 1.1. Further, the Ames result with 4-strain Ames is “negative”. Further, the “GSH trapping, reactive intermediates” value in data set [3] is listed as “negative”. The “seizure liability / behavioral convulsions (modified Racine score)” value with mice is “did not induce seizure liability; also recorded: did not cause any observed adverse effects”. Moreover, in data set [4] (dose iv/po 1/3 mg/kg), the “F (%) po” value was 79%, the clearance turned out to be 2.3 mL/min/kg, the Vd was found to be 0.7 L/kg and the half-life is 4.5 h.
`Cn1ccc2nc(C(=O)NC3CCOCC3)cc(Cc3ccc(-c4cc[nH]n4)cc3)c21` [compound 24]: the “Relative Abundance (%)” value in data set [2] (11 dosed 100mg, 5-30 min) worked out at 2.2%; in data set [2] (11 dosed 100mg, 60-240 min) it was 5.6%; in data set [2] (11 dosed 300mg, 5-30 min), 1.7%; in data set [2] (11 dosed 300mg, 160-240 min), 3.2%.

These data come from article PMC11413853, “Discovery of VU6007496: Challenges in the Development of an M1 Positive Allosteric Modulator Backup Candidate” (ACS Chemical Neuroscience, 2024).
